Data reported in article PMC12114630 (Pharmaceuticals, 2025).
Like-named read-outs stand apart in the source and are kept apart here.

Legend:
D4R (hD4.4R) = molecular target: T1, D4R (hD4.4R) (Homo sapiens, UniProt P21917); assay: [3H]N-methylspiperone competition, membranes; type: binding; conditions: read-out: pKi / D4R (converted)
T1 construct: gene DRD4; human cloned receptor stably expressed in HEK293 cells; membranes
T1 sequence (P21917 1-419): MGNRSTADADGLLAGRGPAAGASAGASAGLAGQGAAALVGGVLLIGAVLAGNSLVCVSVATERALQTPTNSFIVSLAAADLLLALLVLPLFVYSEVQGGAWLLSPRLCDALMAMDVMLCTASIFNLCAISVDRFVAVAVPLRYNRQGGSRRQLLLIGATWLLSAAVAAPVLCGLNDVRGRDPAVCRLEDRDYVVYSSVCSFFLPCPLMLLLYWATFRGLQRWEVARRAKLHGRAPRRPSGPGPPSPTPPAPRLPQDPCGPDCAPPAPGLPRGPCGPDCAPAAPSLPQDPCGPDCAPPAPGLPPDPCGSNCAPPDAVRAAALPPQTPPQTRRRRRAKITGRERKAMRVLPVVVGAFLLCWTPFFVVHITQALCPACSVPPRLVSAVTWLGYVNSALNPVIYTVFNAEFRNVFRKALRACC
Description: [3H]N-methylspiperone competition, membranes on D4R (hD4.4R)

D3R (hD3R) = molecular target: T2, D3R (hD3R) (Homo sapiens, UniProt P35462); assay: [3H]N-methylspiperone competition, membranes; type: binding; conditions: read-out: pKi / D3R (converted)
T2 construct: gene DRD3; human cloned receptor stably expressed in HEK293 cells; membranes
T2 sequence (P35462 whole entry): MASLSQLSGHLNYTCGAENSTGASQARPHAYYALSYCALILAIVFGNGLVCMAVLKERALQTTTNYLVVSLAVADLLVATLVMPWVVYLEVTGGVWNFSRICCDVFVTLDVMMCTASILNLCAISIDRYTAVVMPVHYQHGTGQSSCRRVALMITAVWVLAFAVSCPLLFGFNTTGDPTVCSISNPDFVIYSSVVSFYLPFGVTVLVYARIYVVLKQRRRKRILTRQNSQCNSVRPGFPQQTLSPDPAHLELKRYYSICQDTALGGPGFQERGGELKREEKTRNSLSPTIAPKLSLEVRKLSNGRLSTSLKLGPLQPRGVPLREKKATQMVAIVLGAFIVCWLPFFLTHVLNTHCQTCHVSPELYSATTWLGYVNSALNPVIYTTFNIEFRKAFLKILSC
Description: [3H]N-methylspiperone competition, membranes on D3R (hD3R)

D2R (hD2R) = molecular target: T3, D2R (hD2R) (Homo sapiens, UniProt P14416); assay: [3H]N-methylspiperone competition, membranes; type: binding; conditions: read-out: pKi / D2R (converted)
T3 construct: gene DRD2; human cloned receptor stably expressed in HEK293 cells; membranes
T3 sequence (P14416 whole entry): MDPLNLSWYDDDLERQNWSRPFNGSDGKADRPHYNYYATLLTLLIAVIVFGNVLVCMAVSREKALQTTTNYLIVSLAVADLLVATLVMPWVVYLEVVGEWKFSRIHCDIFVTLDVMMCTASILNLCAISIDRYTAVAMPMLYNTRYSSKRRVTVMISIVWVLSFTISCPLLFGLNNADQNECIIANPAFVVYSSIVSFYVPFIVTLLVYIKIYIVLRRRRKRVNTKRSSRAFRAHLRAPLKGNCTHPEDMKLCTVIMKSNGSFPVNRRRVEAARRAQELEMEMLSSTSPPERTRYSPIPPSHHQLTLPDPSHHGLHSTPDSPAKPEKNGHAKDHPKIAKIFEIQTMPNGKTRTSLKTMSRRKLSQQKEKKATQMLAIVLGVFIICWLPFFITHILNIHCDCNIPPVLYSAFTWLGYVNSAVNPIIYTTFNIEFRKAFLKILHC
Description: [3H]N-methylspiperone competition, membranes on D2R (hD2R)

D4R (BRET assay) [1] = molecular target: T4, D4R (BRET assay) (Homo sapiens, UniProt P21917); assay: BRET Go activation, antagonist mode; type: cell-based
T4 construct: gene DRD4; expressed in HEK293T cells for BRET functional assays
T4 sequence (P21917 1-419): T1 sequence (P21917 1-419)

D4R (BRET assay) [2] = molecular target: T4, D4R (BRET assay); assay: BRET Go activation, agonist mode; type: cell-based; conditions: read-out: 16 (converted)

| Structure (SMILES) | Ki (D4R (hD4.4R)) | Ki (D3R (hD3R)) | Ki (D2R (hD2R)) | IC50 (D4R (BRET assay) [1]; read-out: 12 (converted)) | EC50 (D4R (BRET assay) [2]) | IC50 (D4R (BRET assay) [1]; read-out: 16 (converted)) |
| --- | --- | --- | --- | --- | --- | --- |
| O=C1CCc2ccccc2N1CCCN1CC=C(c2ccccc2)CC1 [compound 19, 1-(3-(4-Phenyl-3,6-dihydropyridin-1(2H)-yl)propyl)-3,4-dihydroquinolin-2(1H)-one] | 1.51 nM | 245 nM | 575 nM | – | – | – |
| O=C1CCc2ccccc2N1CCCN1CCc2ccccc2C1 [compound 20, 1-(3-(3,4-Dihydroisoquinolin-2(1H)-yl)propyl)-3,4-dihydroquinolin-2(1H)-one] | 28.2 nM | 229 nM | 447 nM | – | – | – |
| O=C1CCc2ccccc2N1CC1CCN(Cc2ccccc2)CC1 [compound 18, 1-((1-Benzylpiperidin-4-yl)methyl)-3,4-dihydroquinolin-2(1H)-one] | 275 nM | 7590 nM | 13200 nM | – | – | – |
| O=C1CCc2ccccc2N1CCN1CCC(Cc2ccccc2)CC1 [compound 12, 1-(2-(4-Benzylpiperidin-1-yl)ethyl)-3,4-dihydroquinolin-2(1H)-one] | 0.661 nM | 933 nM | 661 nM | 214 nM | – | – |
| CCCCN1CCC(CCCN2C(=O)CCc3ccccc32)CC1 [compound 15, 1-(3-(1-Butylpiperidin-4-yl)propyl)-3,4-dihydroquinolin-2(1H)-one] | 759 nM | 1070 nM | 10200 nM | – | – | – |
| O=C1CCc2ccccc2N1CCCC1CCN(Cc2ccccc2)CC1 [compound 16, 1-(3-(1-Benzylpiperidin-4-yl)propyl)-3,4-dihydroquinolin-2(1H)-one] | 1.62 nM | 2000 nM | 3630 nM | – | 4.37 nM | 61.7 nM |

The remaining lines, values ahead:

| Ki (D4R (hD4.4R)) | Ki (D3R (hD3R)) | Ki (D2R (hD2R)) | IC50 (D4R (BRET assay) [1]; read-out: 12 (converted)) | EC50 (D4R (BRET assay) [2]) | IC50 (D4R (BRET assay) [1]; read-out: 16 (converted)) | Structure (SMILES) |
| --- | --- | --- | --- | --- | --- | --- |
| 22.4 nM | 302 nM | 1070 nM | – | – | – | O=C1CCc2ccccc2N1CCCCN1CCC(Cc2ccccc2)CC1 [compound 13, 1-(4-(4-Benzylpiperidin-1-yl)butyl)-3,4-dihydroquinolin-2(1H)-one] |
| 52.5 nM | 288 nM | 302 nM | – | – | – | CCCCC1CCN(CCCCCN2C(=O)CCc3ccccc32)CC1 [compound 11, 1-(5-(4-Butylpiperidin-1-yl)pentyl)-3,4-dihydroquinolin-2(1H)-one] |
| 302 nM | 8130 nM | 12600 nM | – | – | – | O=C1CCc2ccccc2N1CCC1CCN(Cc2ccccc2)CC1 [compound 17, 1-(2-(1-Benzylpiperidin-4-yl)ethyl)-3,4-dihydroquinolin-2(1H)-one] |
| 23.4 nM | 309 nM | 1350 nM | – | – | – | CCCCC1CCN(CCCCN2C(=O)CCc3ccccc32)CC1 [compound 10, 1-(4-(4-Butylpiperidin-1-yl)butyl)-3,4-dihydroquinolin-2(1H)-one] |
| 45.7 nM | 407 nM | 813 nM | – | – | – | O=C1CCc2ccccc2N1CCCCCN1CCC(Cc2ccccc2)CC1 [compound 14, 1-(5-(4-Benzylpiperidin-1-yl)pentyl)-3,4-dihydroquinolin-2(1H)-one] |
| 17.4 nM | 13200 nM | 8910 nM | – | – | – | CCCCC1CCN(CCN2C(=O)CCc3ccccc32)CC1 [compound 9, 1-(2-(4-Butylpiperidin-1-yl)ethyl)-3,4-dihydroquinolin-2(1H)-one] |
